We go through 1 molecule from article PMC10804683, “Identification of the pyridoxal 5′‐phosphate allosteric site in human pyridox(am)ine 5′‐phosphate oxidase” (Protein Science : A Publication of the Protein Society, 2024).

In experiment [1] the target is T1, human PNPO 1-31del variant (Homo sapiens, UniProt Q9NVS9).
T1 construct: a main form corresponding to the entire protein; made in house; host or cells: E. coli BL21(DE3)
T1 sequence (Q9NVS9 32-261): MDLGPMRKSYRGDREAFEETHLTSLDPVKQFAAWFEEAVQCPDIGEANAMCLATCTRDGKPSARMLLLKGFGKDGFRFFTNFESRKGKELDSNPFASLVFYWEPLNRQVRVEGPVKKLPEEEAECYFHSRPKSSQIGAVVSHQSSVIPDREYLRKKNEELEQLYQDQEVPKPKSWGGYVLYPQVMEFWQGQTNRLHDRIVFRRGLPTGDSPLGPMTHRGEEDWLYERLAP
Kind of experiment: PLP binding by DSF, 1-31del. The conditions noted are these: 50 mM Na-HEPES pH 7.6, 2 μM enzyme. As for the experimental part:
FIGURE 2 DSF measurements with F48A (a), F48A/E50L/R258L (b), F48A/E50L/H248N/R258L (c), and 1‐31del PNPO variants in the presence of different PLP concentrations. Upper panels: Fluorescence change is expressed as fractional variation as a function of temperature. The experiment was carried out using 2 μM enzyme and different PLP concentrations (0, 0.78, 1.56, 3.13, 6.25, 12.5, 25, and 50 μM). Thermal denaturation data are fitted to the Boltzmann equation to obtain melting temperatures. Each curve is the average of three independent experiments with standard error bars. Lower panels: Saturation curves obtained by plotting the melting temperatures as a function of the PLP concentration. […] (μM)' of each lower plot.
On the technique in general: Differential scanning fluorimetry follows unfolding on heating by fluorescence.

The target of experiment [2] is T2, human PNPO F48A/E50L/H248N/R258L variant (Homo sapiens, UniProt Q9NVS9, E50L/F48A/H248N/R258L).
T2 construct: a main form corresponding to the entire protein; made in house; host or cells: E. coli BL21(DE3)
T2 sequence (Q9NVS9 1-261 F48A/E50L/H248N/R258L): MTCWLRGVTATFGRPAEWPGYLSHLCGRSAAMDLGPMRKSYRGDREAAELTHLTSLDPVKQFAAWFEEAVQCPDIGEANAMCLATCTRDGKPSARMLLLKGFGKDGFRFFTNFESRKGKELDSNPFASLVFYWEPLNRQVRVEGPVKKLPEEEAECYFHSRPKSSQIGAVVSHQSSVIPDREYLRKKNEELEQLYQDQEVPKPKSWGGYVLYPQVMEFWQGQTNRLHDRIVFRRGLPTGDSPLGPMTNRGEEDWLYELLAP
The experiment in a line: PLP inhibition kinetics of PNP oxidation, quadruple variant. The format is biochemical. The settings on record: Na-HEPES pH 7.6, 2 μM enzyme, PLP 0–16 μM. As for the experimental part:
This is a general inhibition mechanism that takes into account the possibility of PLP binding to both the active and allosteric sites. PLP binding at the active site gives a complete, competitive inhibition, whereas PLP binding at the allosteric site yields a substrate‐enzyme‐PLP ternary complex that is still catalytically active, although k CAT is reduced by a coefficient whose value is around 0.15. A thorough inhibition kinetic characterization was carried out with the wild type, F48A, F48A/E50L/R258L, and F48A/E50L/H248N/R258L PNPO forms, so as to evaluate the effect of the variations on the allosteric properties of the enzyme. The initial velocity of PNP conversion into PLP was measured in Na‐HEPES buffer (in which PLP is allowed to accumulate) by varying substrate concentration at different, fixed exogenous PLP concentrations, using 2 μM enzyme. A series of saturation curves were obtained that were used to fit the Michaelis–Menten equation (Figure 5), acquiring apparent V MAX and K M values as a function of PLP concentration. […]
FIGURE 5 Characterization of PLP inhibition. Upper panels: The initial velocity of the reaction was measured with 2 μM wild type (a), and the F48A (b), F48A/E50L/R258L (c), and F48A/E50L/H248N/R258L (d) PNPO variants, varying PNP concentration while keeping exogenous PLP fixed at different concentrations (0, 0.25, 0.5, 1, 2, 4, 8, and 16 μM). […]

The Kd is the equilibrium constant for the complex coming apart. The low end stands for a tighter complex, the high end for a looser complex.

As to `Cc1ncc(COP(=O)(O)O)c(C=O)c1O` [PLP, pyridoxal 5′‐phosphate], the Kd in experiment [1] was 3 ± 0.3 µM. In addition, the “type of inhibition of PNP oxidation by PLP” value in experiment [2] is listed as “pure competitive inhibition”.
